Assay results reported in patent US20050256034A1, “Dioxolane analogs for improved inter-cellular delivery” (priority 2000, published 2005).

assay: 3H-Thymidine Incorporation Assay (24 hr drug, wash, another 48 hr; 72 hr assay); format: cell-based; conditions: CCRF-CEM, read-out: IC50 in μM (3H-TdR incorporation at 72 hr) CEM/dCK- 24 h, CEM/dCK- (CCRF-CEM deoxycytidine kinase-deficient); 24 h exposure to drug, wash, another 48 hr

Compound	IC50 [µM]
COc1cc2c(cc1OC)C(=O)/C(=C/c1cc(C)c(OC(=O)OC[C@H]3OC[C@@H](n4ccc(N)nc4=O)O3)c(C)c1)C2 [Compound 112, CARBONIC ACID 4(S)-(4′-A- MINO-2′-OXO-2H-PYRI- MIDIN-1′-YL)-[1,3]DI- OXOLAN-2(S)-YL- METHYL ESTER 4-(5″,6″-DI- METHOXY-1″-OXO-IN- DAN-2″-YLIDENE- METHYL)-2,6-DI- METHYL-PHENYL ESTER]	0.057

same assay, conditions: ratio of IC50 CEM/dCK- to IC50 CCRF-CEM, 24 h exposure

Compound	Factor (Resistance Factor = Ratio of dCK- on Wild-type CCRF-CEM)
Nc1ccn([C@@H]2CO[C@H](COC(=O)C34CC5CC(CC(C5)C3)C4)O2)c(=O)n1 [Compound 110, ADAMANTANE-1-CARBOXYLIC ACID 4-(4-AMINO-2-OXO-2H-PYRI- MIDIN-1-YL)-[1,3]DI- OXOLAN-2-YLMETHYL ESTER]	3 307
CC(C)(C)OC(=O)N(CCCCC(=O)OC[C@H]1OC[C@@H](n2ccc(N)nc2=O)O1)Cc1ccccc1 [Compound 111, 5-(BENZYL-TERT-BUTOXY- CARBONYL-AMINO)-PENTANOIC ACID 4-(4-A- MINO-2-OXO-2H-PYRI- MIDIN-1-YL)-[1,3]DI- OXOLAN-2-YLMETHYL ESTER]	13000
COc1cc2c(cc1OC)C(=O)/C(=C/c1cc(C)c(OC(=O)OC[C@H]3OC[C@@H](n4ccc(N)nc4=O)O3)c(C)c1)C2 [Compound 112, CARBONIC ACID 4(S)-(4′-A- MINO-2′-OXO-2H-PYRI- MIDIN-1′-YL)-[1,3]DI- OXOLAN-2(S)-YL- METHYL ESTER 4-(5″,6″-DI- METHOXY-1″-OXO-IN- DAN-2″-YLIDENE- METHYL)-2,6-DI- METHYL-PHENYL ESTER]	10
COC1(OC[C@H]2OC[C@@H](n3ccc(N)nc3=O)O2)CCCCC1 [Compound 113, 4-AMINO-1-([2-(1-METH- OXY-CYCLO- HEXYLOXYMETHYL)-[1,3]DI- OXOLAN-4-YL]-1H-PYRI- MIDIN-2-ONE]	>1 667
CC(C)(C)OC(=O)N(CCCCC(=O)Nc1ccn([C@@H]2CO[C@H](COC(=O)CCCCN(Cc3ccccc3)C(=O)OC(C)(C)C)O2)c(=O)n1)Cc1ccccc1 [Compound 114, 5-(BENZYL-TERT-BUTOXY- CARBONYL-AMINO)-PENTANOIC ACID 4-{4-[5-(BENZYL-TERT-BUTOXY- CARBONYL-AMINO)-PENTANOYL- AMINO]-2-OXO-2H!PYRI- MIDIN-1-YL)-[1,3]DI- OXOLAN-2-YLMETHYL ESTER]	500
CC(C)(C)OC(=O)N(CCCCC(=O)Nc1ccn([C@@H]2CO[C@H](CO)O2)c(=O)n1)Cc1ccccc1 [Compound 115, BENZYL-{4-[1-(2-HYDROXY- METHYL-[1,3]DI- OXOLAN-4-YL)-2-OX- O-1,2-DIHYDRO-PYRI- MIDIN-4-YLCARBA- MOYL]-BUTYL}-CARBAMIC ACID TERT!-BUTYL ESTER]	>500
COc1ccc(OC(=O)OC[C@H]2OC[C@@H](n3ccc(N)nc3=O)O2)cc1 [Compound 118, CARBONIC ACID 4-(4-A- MINO-2-OXO-2H-PYRI- MIDIN-1-YL)-[1,3]DI- OXOLAN-2-YLMETHYL ESTER 4-METHOXY-PHENYL ESTER]	>3 571
CCCCCCNC(=O)Nc1ccn([C@@H]2CO[C@H](COC(=O)NCCCCCC)O2)c(=O)n1 [Compound 119, HEXYL-CARBAMIC ACID 4-[4-(3-HEX- YL-UREIDO)-2-OX- O-2#H!-PYRIMIDIN-1-YL]-[1,3]DI- OXOLAN-2-YLMETHYL ESTER]	˜2
CCCCCCNC(=O)Nc1ccn([C@@H]2CO[C@H](CO)O2)c(=O)n1 [Compound 120, 1-HEXYL-3-[1-(2-HY- DROXYMETHYL-[1,3]DI- OXOLAN-4-YL)-2-OX- O-1,2-DIHYDRO-PYRI- MIDIN-4-YL]-UREA]	1
CCCCCCNC(=O)OC[C@H]1OC[C@@H](n2ccc(N)nc2=O)O1 [Compound 121, HEXYL-CARBAMIC ACID 4-(4-A- MINO-2-OXO-2H-PYRI- MIDIN-1-YL)-[1,3]DI- OXOLAN-2-YLMETHYL ESTER]	>6
CCCCCCOC(=O)OC[C@H]1OC[C@@H](n2ccc(NC(=O)OCc3ccccc3)nc2=O)O1 [Compound 122, CARBONIC ACID 4-(4-BENZYLOXY- CARBONYLAMINO-2-OX- O-2H-PYRIMIDIN-1-YL)-[1,3]DI- OXOLAN-2-YLMETHYL ESTER HEXYL ESTER]	86
COc1ccc(C(OC[C@H]2OC[C@@H](n3ccc(N)nc3=O)O2)(c2ccccc2)c2ccc(OC)cc2)cc1 [Compound 123, 4-AMINO-1-{2-[BIS-(4-METH- OXY-PHENYL)-PHENYL-METH- OXYMETHYL]-[1,3]DI- OXOLAN-4-YL)-1H-PYRI- MIDIN-2-ONE]	17
CC(C)c1ccc(NC(=O)OC[C@H]2OC[C@@H](n3ccc(NC(=O)OCc4ccccc4)nc3=O)O2)cc1 [Compound 124, (1-[2-(4-ISOPROPYL-PHENYL- CARBAMOYLOXYMETHYL)-[1,3]DI- OXOLAN-4-YL]-2-OX- O-1,2-DIHYDRO-PYRI- MIDIN-4-YL}-CARBAMIC ACID BENZYL ESTER]	˜2
CC(C)(C)OC(=O)N(CCCCC(C)(C)C(=O)Nc1ccn([C@@H]2CO[C@H](CO)O2)c(=O)n1)Cc1ccccc1 [Compound 125, Benzyl-{5-[1-(2-hydroxy-methyl-[1,3]di-oxolan-4-yl)-2-ox-o-1,2-dihydro-pyri-midin-4-ylcarba-moyl]-5-methyl-hexyl}-carbamic acid tert-butyl ester]	97
COc1ccc(C(OC[C@H]2OC[C@@H](n3ccc(N)nc3=O)O2)(c2ccccc2)c2ccccc2)cc1 [Compound 134, 4-AMINO-1-{2-[(4-METH- OXY-PHENYL)-DI- PHENYL-METH- OXYMETHYL]-[1,3]DI- OXOLAN-4-YL}-1H-PYRI- MIDIN-2-ONE]	3
O=c1nc(NC2Sc3ccccc3S2)ccn1[C@@H]1CO[C@H](CO)O1 [Compound 136, 4-(BENZO[1,3]DITHIOL-2-YL- AMINO)-1-(2-HYDROXY- METHYL-[1,3]DI- OXOLAN-4-YL)-1H!PYRI- MIDIN-2-ONE]	>25
COC(OC)(OC[C@H]1OC[C@@H](n2ccc(N)nc2=O)O1)c1ccccc1 [Compound 139, 4-AMINO-1-[2-(DI- METHOXY-PHENYL-METH- OXYMETHYL)-[1,3]DI- OXOLAN-4-YL]-1H-PYRI- MIDIN-2-ONE]	>250
CN(Cc1ccccc1)C(=O)OC[C@H]1OC[C@@H](n2ccc(N)nc2=O)O1 [Compound 140, BENZYL-METHYL-CARBAMIC ACID 4-(4-AMINO-2-OXO-2H-PYRI- MIDIN-1-YL)-[1,3]DI- OXOLAN-2-YLMETHYL ESTER]	>9
O=c1nc(NC2(c3ccccc3)c3ccccc3Oc3ccccc32)ccn1[C@@H]1CO[C@H](COC2(c3ccccc3)c3ccccc3Oc3ccccc32)O1 [Compound 144, 4-(9-PHENYL-9#H!-XAN- THEN-9-YLAMINO)-1-[2-(9-PHE- NYL-9#H!-XAN- THEN-9-YLOXYMETHYL)-[1,3]DI- OXOLAN-4-YL]-1#H!-PYRI- MIDIN-2-ONE]	110
Nc1ccn([C@@H]2CO[C@H](COC(=S)Oc3ccccc3)O2)c(=O)n1 [Compound 147, THIOCARBONIC ACID O-[4(S)-(4′-A- MINO-2′-OXO-2H-PYRI- MIDIN-1′-YL)-[1,3]DI- OXOLAN-2(S)-YL- METHYL]ESTER O-PHENYL ESTER]	>4 000
